Measurements taken from US12454509B2, “Local anesthetics with selective-sensory nerve blockade” (Children's Medical Center Corporation, priority 2019, dated 2025).
Several values for one entry are separate records, joined by “and”; a condition that tells them apart may be missing. Identical values can stand only once.

How the values were obtained:
sciatic nerve [1] = experiment: Sciatic nerve block in rats: duration of thermal nociceptive (sensory) block, modified hotplate test; type: in vivo, rat; conditions: for Block Duration (min) Sensory: rat sciatic nerve injection 0.3 mL; for Sensory:Motor Block Ratio: rat sciatic nerve block
Excerpt: (§1) Sciatic Nerve Block and Neurobehavioral Testing. Animals were cared for in compliance with protocols approved by the Children's Hospital Animal Care and Use Committee, and the Massachusetts Institute of Technology Committee on Animal Care, which conformed to guidelines of the International Association for the Study of Pain. Adult male Sprague-Dawley rats (Charles River Laboratories) weighing 320-450 g were housed in groups, in a 6 AM to 6 PM light-dark cycle. Under brief isoflurane-oxygen anesthesia, a 23G needle was introduced postero-medial to the greater trochanter, until bone was contacted, and 0.3 mL of test solution was injected over the sciatic nerve. Thermal nociception was assessed by a modified hotplate test, and motor function via a weight-bearing test. […] Motor strength was assessed with a weight-bearing test. In brief, the animal was held over a digital balance such that it could bear weight with 1 hind paw at a time. The maximum weight that it could bear was recorded. The duration of motor blockade was defined as the time for weight bearing to return halfway to normal from maximal block. The halfway point for each rat was defined as […].

sciatic nerve [2] = experiment: Sciatic nerve block in rats: duration of motor block, weight-bearing test; type: in vivo; conditions: rat sciatic nerve injection 0.3 mL
Excerpt: as §1

PC12 cells = experiment: Cytotoxicity in PC12 cells; type: cell-based, rat; conditions: for IC50: Rattus norvegicus, PC-12, cytotoxicity, exposure up to 24 h
Method: (§2) C2C12 Mouse myoblasts [American Type Culture Collection (ATCC) CRL-1772] were cultured to proliferate in DMEM supplemented with 20% FBS and 100 Penicillin Streptomycin. Cell culture supplies were obtained from Invitrogen, unless otherwise noted. Cells were plated at 50,000 cells per mL in DMEM with 2% horse serum and 1% Penn Strep, and left to differentiate into myotubules for 10-14 days. During differentiation, media were exchanged every 2 to 3 days. Cell viability and proliferation were studied after exposures to drugs for up to 24 h. PC12 cells (ATCC, CRL-1721) originating from rat adrenal gland pheochromocytoma were grown in 24-well tissue culture dishes (CellBind; Corning) with F-12K (ATCC) supplemented with 12.5% horse serum (Gibco), 2.5% FBS (Gibco), and 1% Penn Strep (Sigma). For neuronal induction (PC12), cells were seeded at a relative low density of 5×10^4 cells/cm2 and 50 ng/mL NGF was added 24 h after seeding. Cell viability and proliferation were evaluated as for C2C12 cells. Experiments with PC12 cells were conducted for up to 24 hours.

C2C12 Mouse myoblasts = experiment: Cytotoxicity in C2C12 myotubules; type: cell-based; conditions: C2C12 cells; for IC50: Mus musculus, cytotoxicity, exposure up to 24 h
Method: as §2

hERG = hERG (Homo sapiens, UniProt Q12809); experiment: Whole-cell patch clamp, hERG current in stably transfected HEK cells
Chain of hERG (Q12809 whole entry): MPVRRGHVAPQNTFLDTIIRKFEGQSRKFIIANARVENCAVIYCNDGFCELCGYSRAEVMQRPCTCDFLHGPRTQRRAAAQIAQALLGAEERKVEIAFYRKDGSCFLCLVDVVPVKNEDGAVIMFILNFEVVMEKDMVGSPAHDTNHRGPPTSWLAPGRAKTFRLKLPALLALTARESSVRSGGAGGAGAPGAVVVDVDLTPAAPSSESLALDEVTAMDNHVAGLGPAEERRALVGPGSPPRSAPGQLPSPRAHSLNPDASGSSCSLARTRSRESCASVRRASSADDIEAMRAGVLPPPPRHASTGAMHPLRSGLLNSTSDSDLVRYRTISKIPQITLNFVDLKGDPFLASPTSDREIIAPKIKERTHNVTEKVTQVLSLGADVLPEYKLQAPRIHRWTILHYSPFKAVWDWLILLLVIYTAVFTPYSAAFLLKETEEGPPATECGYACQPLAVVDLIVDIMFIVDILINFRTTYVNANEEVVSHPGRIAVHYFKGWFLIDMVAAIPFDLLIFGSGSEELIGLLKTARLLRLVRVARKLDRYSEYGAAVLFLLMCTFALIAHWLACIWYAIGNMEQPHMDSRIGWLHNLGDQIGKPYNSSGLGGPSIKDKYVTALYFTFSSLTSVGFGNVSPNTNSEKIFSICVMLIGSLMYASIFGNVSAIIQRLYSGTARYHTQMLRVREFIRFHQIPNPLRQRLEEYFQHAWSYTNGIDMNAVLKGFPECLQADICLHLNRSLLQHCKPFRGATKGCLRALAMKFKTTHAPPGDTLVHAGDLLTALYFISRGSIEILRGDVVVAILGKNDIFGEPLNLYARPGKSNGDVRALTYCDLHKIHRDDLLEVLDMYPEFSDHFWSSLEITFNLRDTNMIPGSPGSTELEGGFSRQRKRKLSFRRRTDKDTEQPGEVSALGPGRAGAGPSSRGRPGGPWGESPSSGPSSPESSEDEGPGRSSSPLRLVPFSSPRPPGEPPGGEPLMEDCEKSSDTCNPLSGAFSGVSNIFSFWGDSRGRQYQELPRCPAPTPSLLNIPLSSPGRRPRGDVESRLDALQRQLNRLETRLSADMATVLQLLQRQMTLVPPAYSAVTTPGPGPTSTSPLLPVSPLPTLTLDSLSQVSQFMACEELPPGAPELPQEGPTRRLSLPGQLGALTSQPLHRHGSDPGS
Method: (§3) These experiments were designed to examine the acute effects of 4Sa (ZYK2312-1), 4Sb (ZYK2312-2), and bupivacaine on hERG and peak Nav1.5 currents recorded from stably transfected HEK cells.
(§4) Experimental Methods: Currents were measured using the whole-cell variant of the patch clamp method. Glass pipettes were pulled from borosilicate glass by a horizontal puller (Sutter Instruments, USA). Pipette tip resistance was approximately 1 to 2 MΩ when filled with internal solutions. Series resistance was compensated electronically by approximately 60-80%. Bath temperature was measured by a thermistor placed near the cell under study. An Axopatch 1-B amplifier (Axon Instruments, Foster City, CA) was used for whole-cell voltage clamping. Creation of voltage clamp pulses and data acquisition was controlled by a computer running pClamp software (ver 9.2 Axon Instruments). After rupture of the cell membrane (entering whole-cell mode), current kinetics and amplitudes were allowed to stabilize as the cell was dialyzed with internal solution and paced every 5 seconds (typically 2 to 3 minutes). Peak INa was elicited using a pulse pattern with fixed amplitudes (conditioning prepulse: −120 mV for 50 ms; depolarizing test step to −30 mV for 20 ms). hERG current was elicited with a 500 ms pulse to +10 mV followed by a 500 ms pulse to −40 mV (holding potential=[…]). Cells were perfused at each testing concentration until a steady-state was reached.
(§5) Raw data and mean±SEM are given. Data are presented as percent reduction of current amplitude. […] Each cell served as its own control. A nonlinear curve-fitting routine was utilized to fit a three-parameter Hill equation to the results using MicroCal Origin, version 6.0 software. The equation is:
(§6) [formula] where Vmax=100 and k and n are unconstrained variables.

peak Nav1.5 = peak Nav1.5 (Homo sapiens, UniProt Q14524); experiment: Whole-cell patch clamp, peak Nav1.5 current in stably transfected HEK cells; conditions: for inhibition at 10 µM: HEK293, read-out: peak Nav1.5 current amplitude, percent reduction, 10 μM, individual cell (raw data); for inhibition at 100 µM: HEK293, read-out: peak Nav1.5 current amplitude, percent reduction, 100 μM, individual cell (raw data); for peak Nav1.5 current amplitude, percent reduction: individual cell (raw data)
Chain of peak Nav1.5 (Q14524 whole entry): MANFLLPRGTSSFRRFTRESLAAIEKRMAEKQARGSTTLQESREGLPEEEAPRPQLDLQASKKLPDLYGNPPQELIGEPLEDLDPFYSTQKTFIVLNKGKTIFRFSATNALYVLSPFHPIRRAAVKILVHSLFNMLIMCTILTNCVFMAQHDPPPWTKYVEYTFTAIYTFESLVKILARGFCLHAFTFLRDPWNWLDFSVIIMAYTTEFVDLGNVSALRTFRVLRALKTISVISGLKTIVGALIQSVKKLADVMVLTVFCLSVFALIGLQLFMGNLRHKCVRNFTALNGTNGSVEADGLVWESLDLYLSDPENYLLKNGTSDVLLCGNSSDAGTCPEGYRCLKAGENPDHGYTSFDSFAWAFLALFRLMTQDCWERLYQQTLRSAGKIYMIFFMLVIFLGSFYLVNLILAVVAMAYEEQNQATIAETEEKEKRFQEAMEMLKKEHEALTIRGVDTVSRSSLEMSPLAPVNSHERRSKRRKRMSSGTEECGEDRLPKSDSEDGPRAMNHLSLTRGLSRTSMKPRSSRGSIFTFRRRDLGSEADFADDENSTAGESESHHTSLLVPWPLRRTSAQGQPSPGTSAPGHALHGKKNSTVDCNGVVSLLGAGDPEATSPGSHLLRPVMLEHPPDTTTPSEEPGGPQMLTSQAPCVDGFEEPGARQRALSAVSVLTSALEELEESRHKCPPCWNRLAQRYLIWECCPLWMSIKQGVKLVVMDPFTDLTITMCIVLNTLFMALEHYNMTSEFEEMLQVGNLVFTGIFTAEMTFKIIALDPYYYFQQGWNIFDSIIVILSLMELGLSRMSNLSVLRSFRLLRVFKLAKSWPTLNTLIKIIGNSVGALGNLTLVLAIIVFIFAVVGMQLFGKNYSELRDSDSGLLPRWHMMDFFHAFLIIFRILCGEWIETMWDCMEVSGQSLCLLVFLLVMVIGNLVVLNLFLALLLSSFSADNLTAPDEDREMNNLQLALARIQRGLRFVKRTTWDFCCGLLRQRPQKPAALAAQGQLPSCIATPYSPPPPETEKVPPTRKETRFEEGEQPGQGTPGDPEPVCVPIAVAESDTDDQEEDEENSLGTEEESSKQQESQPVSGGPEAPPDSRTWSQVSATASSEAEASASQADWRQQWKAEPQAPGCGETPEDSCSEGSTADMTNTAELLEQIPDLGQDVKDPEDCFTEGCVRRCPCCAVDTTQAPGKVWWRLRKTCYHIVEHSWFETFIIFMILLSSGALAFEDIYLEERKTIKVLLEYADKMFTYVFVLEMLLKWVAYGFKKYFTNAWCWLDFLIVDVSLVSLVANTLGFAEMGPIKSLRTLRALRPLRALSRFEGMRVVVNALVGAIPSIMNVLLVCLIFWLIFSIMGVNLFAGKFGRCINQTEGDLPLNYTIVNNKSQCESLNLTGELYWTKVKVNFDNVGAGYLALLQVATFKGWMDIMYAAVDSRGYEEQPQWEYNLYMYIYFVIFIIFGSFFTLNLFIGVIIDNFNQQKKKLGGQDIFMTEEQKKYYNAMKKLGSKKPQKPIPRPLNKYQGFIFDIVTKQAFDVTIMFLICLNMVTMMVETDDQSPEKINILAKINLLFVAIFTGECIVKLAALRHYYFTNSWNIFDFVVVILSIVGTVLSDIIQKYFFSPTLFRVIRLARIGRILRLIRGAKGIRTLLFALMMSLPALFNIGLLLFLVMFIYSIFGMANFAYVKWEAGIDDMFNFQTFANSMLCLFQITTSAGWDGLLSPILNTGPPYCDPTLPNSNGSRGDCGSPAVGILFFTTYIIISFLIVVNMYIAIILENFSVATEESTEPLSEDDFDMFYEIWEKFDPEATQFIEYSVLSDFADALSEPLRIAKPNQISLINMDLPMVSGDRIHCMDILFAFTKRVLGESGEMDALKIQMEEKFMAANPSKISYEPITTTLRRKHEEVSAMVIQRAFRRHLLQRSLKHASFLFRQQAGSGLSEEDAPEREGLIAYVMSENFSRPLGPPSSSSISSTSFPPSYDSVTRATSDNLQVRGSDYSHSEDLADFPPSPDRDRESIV
Method: as §3, §4, §5, §6

CCCCN1CCCCC1C(=O)Nc1c(C)cccc1C (stereo not drawn) [Bupivacaine, bupivacaine, reference compound]
Block Duration (min) Sensory (sciatic nerve [1]; dose conc 10 mM): 129 ± 21 min | Block Duration (min) Sensory (sciatic nerve [1]; dose conc 15 mM): 215 ± 31 min | Block Duration (min) Motor (sciatic nerve [2]; dose conc 10 mM): 140 ± 15 min | Block Duration (min) Motor (sciatic nerve [2]; dose conc 15 mM): 222 ± 30 min | IC50 (PC12 cells): 870 µM | IC50 (C2C12 Mouse myoblasts): 720 µM | IC50 (hERG): 16.4 µM | hERG current amplitude, percent reduction (hERG; 1 μM, individual cell (raw data)): 19.8% and 9.1% and 10.5% | hERG current amplitude, percent reduction, mean ± SE (hERG; 1 μM, mean ± SE): 13.1 ± 3.4% | hERG current amplitude, percent reduction (hERG; 10 μM, individual cell (raw data)): 43.0% and 45.0% and 42.1% | hERG current amplitude, percent reduction, mean ± SE (hERG; 10 μM, mean ± SE): 43.4 ± 0.9% | hERG current amplitude, percent reduction (hERG; 100 μM, individual cell (raw data)): 76.3% and 70.7% and 78.9% | hERG current amplitude, percent reduction, mean ± SE (hERG; 100 μM, mean ± SE): 75.3 ± 2.4% | IC50 (peak Nav1.5): 9.8 µM | peak Nav1.5 current amplitude, percent reduction, mean ± SE (peak Nav1.5; 1 μM): 13.5 ± 3.1% | peak Nav1.5 current amplitude, percent reduction, mean ± SE (peak Nav1.5; 10 μM): 49.0 ± 1.0% | peak Nav1.5 current amplitude, percent reduction, mean ± SE (peak Nav1.5; 100 μM): 90.7 ± 1.5% | inhibition at 10 µM (peak Nav1.5): 50.8% | inhibition at 100 µM (peak Nav1.5): 89.2%

CCC[N@@+]1(CC(=O)OC)CCCC[C@H]1C(=O)Nc1c(C)cccc1C.[Br-] [Compound 4Sb, 2-((2,6-Dimethylphenyl)carbamoyl)-1-(2-methoxy-2-oxoethyl)-1-propylpiperidin-1-ium bromide]
Sensory:Motor Block Ratio (sciatic nerve [1]; dose conc 10 mM): ∞ | Sensory:Motor Block Ratio (sciatic nerve [1]; dose conc 15 mM): ∞ | Block Duration (min) Sensory (sciatic nerve [1]; dose conc 10 mM): 90 ± 30 min | Block Duration (min) Sensory (sciatic nerve [1]; dose conc 15 mM): 200 ± 30 min | Block Duration (min) Motor (sciatic nerve [2]; dose conc 10 mM): 0 min | Block Duration (min) Motor (sciatic nerve [2]; dose conc 15 mM): 0 min | cytotoxicity compared with ropivacaine and bupivacaine (in words) (PC12 cells; FIG. 1 / Table 2): significantly less cytotoxic than ropivacaine and bupivacaine | IC50 (PC12 cells; unit inferred): 20100 µM | cytotoxicity compared with ropivacaine and bupivacaine (in words) (C2C12 Mouse myoblasts; FIG. 2 / Table 2): significantly less cytotoxic than ropivacaine and bupivacaine | IC50 (C2C12 Mouse myoblasts; unit inferred): 19300 µM | hERG current amplitude, percent reduction (hERG; human, 1 μM): 0% | hERG current amplitude, percent reduction, mean ± SE (hERG; human, 1 μM): 0 ± 0% | hERG current amplitude, percent reduction (hERG; human, 10 μM): 0% | hERG current amplitude, percent reduction, mean ± SE (hERG; human, 10 μM): 0 ± 0% | hERG current amplitude, percent reduction, mean ± SE (hERG; human, 100 μM): 1.5 ± 0.8% | hERG current amplitude, percent reduction, mean ± SE (hERG; human, 300 μM): 6.4 ± 1.1% | hERG current amplitude, percent reduction, mean ± SE (hERG; human, 1000 μM): 18.3 ± 2.9% | peak Nav1.5 current amplitude, percent reduction (peak Nav1.5; 1 μM): 0% | peak Nav1.5 current amplitude, percent reduction, mean ± SE (peak Nav1.5; 1 μM): 0 ± 0% | peak Nav1.5 current amplitude, percent reduction (peak Nav1.5; 10 μM): 0% | peak Nav1.5 current amplitude, percent reduction, mean ± SE (peak Nav1.5; 10 μM): 0 ± 0% | peak Nav1.5 current amplitude, percent reduction (peak Nav1.5; 100 μM): 0% | peak Nav1.5 current amplitude, percent reduction, mean ± SE (peak Nav1.5; 100 μM): 0 ± 0% | peak Nav1.5 current amplitude, percent reduction, mean ± SE (peak Nav1.5; 300 μM): 4.2 ± 0.9% | peak Nav1.5 current amplitude, percent reduction, mean ± SE (peak Nav1.5; 1000 μM): 13.3 ± 2.9% | inhibition at 1 µM (peak Nav1.5; HEK293, read-out: peak Nav1.5 current amplitude, percent reduction, 1 μM, individual cell (raw data)): 0% | inhibition at 10 µM (peak Nav1.5): 0% | inhibition at 100 µM (peak Nav1.5): 0% | inhibition at 1000 µM (peak Nav1.5; HEK293, read-out: peak Nav1.5 current amplitude, percent reduction, 1000 μM, individual cell (raw data)): 13.8%
